Results as given in patent US20260207388A1, “WOUND DRESSING” (ConvaTec Limited, priority 2023, published 2026).

What was measured:
Conditions in all cases: EDTA at concentrations of 0.1-40 wt. % by volume
Pseudomonas aeruginosa = system: Pseudomonas aeruginosa
Serratia marcescens = system: Serratia marcescens
[1] = system: vancomycin resistant Enterococcus (VRE)
[2] = system: methicillin resistant Staphylococcus aureus (MRSA)

Measured: killing of microorganisms in the planktonic and biofilm state

O=C(O)CN(CCN(CC(=O)O)CC(=O)O)CC(=O)O [EDTA, ethylenediaminetetra-acetic acid]
effectively killed: all assays above
